For the test, the system named is C. elegans. As to the kind of experiment: microbe, parasite or virus in culture. The settings on record: Caenorhabditis elegans.
Setting [1] is: 0 h, read-out: Percentage of motility inhibition 0 h, Table S2, C. elegans SS assay, 110 μM, 0 h, averages of 4 data points.
[2] abbreviates: 24 h, read-out: Percentage of motility inhibition 24 h, Table S2, C. elegans SS assay, 110 μM, 24 h, averages of 4 data points.
The mark [3] stands for this setting: 0 h, read-out: Percentage of motility inhibition 0 h.
Setting [4] is: 24 h, read-out: Percentage of motility inhibition 24 h.

Structures are written as SMILES. Like-named read-outs stand apart in the source and are kept apart here.

What is called inhibition is how much of the control response was suppressed.

Regarding `C=C(NC(=O)C(=C)NC(=O)c1csc(C2=N[C@@H]3c4csc(n4)[C@H]4NC(=O)c5csc(n5)[C@H]([C@](C)(O)[C@@H](C)O)NC(=O)[C@H]5CSC(=N5)/C(=C/C)NC(=O)[C@H]([C@@H](C)O)NC(=O)c5csc(n5)[C@]3(CC2)NC(=O)[C@H](C)NC(=O)C(=C)NC(=O)[C@H](C)NC(=O)[C@H]([C@@H](C)CC)N[C@@H]2C=Cc3c([C@H](C)O)cc(nc3[C@H]2O)C(=O)O[C@@H]4C)n1)C(N)=O` [Thiostrepton], the inhibition at 110 µM was found to be 11% under setting [1] and 31% under setting [2].
The matching figures for `Cc1ccc(C(C)C)c(O)c1` [Thymol]: 54% and 28%.
The matching figures for `CN(C)c1cc(NC(=O)CNC(C)(C)C)c(O)c2c1C[C@H]1C[C@H]3[C@H](N(C)C)C(O)=C(C(N)=O)C(=O)[C@@]3(O)C(O)=C1C2=O` [Tigecycline]: 31% and 19%.
Take `O=C(/C=C/c1ccc(O)cc1)OC[C@H]1O[C@@H](Oc2c(-c3ccc(O)cc3)oc3cc(O)cc(O)c3c2=O)[C@H](O)[C@@H](O)[C@@H]1O` [Tiliroside]: the inhibition at 110 µM is, setting by setting: under setting [3], 2%; under setting [4], 9%.
`CCS(=O)(=O)CCn1c([N+](=O)[O-])cnc1C` [Tinidazole]: the inhibition at 110 µM under setting [1] is 25% and the inhibition at 110 µM under setting [2] stood at 8%.
The corresponding values for `Clc1ccc(C(Cn2ccnc2)OCc2ccsc2Cl)c(Cl)c1` (stereo not drawn) [Tioconazole] are 30% and 43%.
The corresponding values for `O=C(Nc1ncc([N+](=O)[O-])s1)c1ccccc1O` [Tizoxanide] are 40% and 53%.
The corresponding values for `NC[C@H]1O[C@H](O[C@H]2[C@H](O)[C@@H](O[C@H]3O[C@H](CO)[C@@H](O)[C@H](N)[C@H]3O)[C@H](N)C[C@@H]2N)[C@H](N)C[C@@H]1O` [Tobramycin] are 9% and 0%.
With `COP(=S)(OC)Oc1c(Cl)cc(C)cc1Cl` [Tolclofos‐methyl], the inhibition at 110 µM is 35% under setting [1] and 20% under setting [2].
The corresponding values for `Cc1cccc(N(C)C(=S)Oc2ccc3ccccc3c2)c1` [Tolnaftate] are 25% and 26%.
The matching figures for `Cc1cc(-n2c(=O)[nH]c(=O)n(C)c2=O)ccc1Oc1ccc(SC(F)(F)F)cc1` [Toltrazuril]: 31% and 2%.
`C[C@H]1CC[C@]2(NC1)O[C@H]1C[C@H]3[C@@H]4CC[C@H]5C[C@@H](O)CC[C@]5(C)[C@H]4CC[C@]3(C)[C@H]1[C@@H]2C` [Tomatidine]: the inhibition at 110 µM under setting [1] was found to be 6% and the inhibition at 110 µM under setting [2] came to 0%.
With `CC(=O)O[C@@H]1C[C@H](O)[C@@]23CO[C@@H](O)[C@]1(C)[C@@H]2C[C@@H](O)[C@]1(C)[C@@H]3C(=O)[C@H](OC(C)=O)[C@@]2(C)[C@H](c3ccoc3)C[C@H]3O[C@]321` [Toosendanin], the inhibition at 110 µM under setting [1] amounted to 0% and the inhibition at 110 µM under setting [2] amounted to 7%.
On to `O=C(O)c1cc(=O)c2ccccc2[nH]1` [Transtorine], for which the inhibition at 110 µM under setting [2] is 0%.
On to `COc1cc(-c2cc(=O)c3c(O)cc(O)cc3o2)cc(OC)c1O` [Tricin], for which the inhibition at 110 µM by setting is: under setting [1], 31%; under setting [2], 2%.
For `O=C(Nc1ccc(Cl)cc1)Nc1ccc(Cl)c(Cl)c1` [Triclocarban], the inhibition at 110 µM was determined as 15% under setting [1] and 20% under setting [2].
On to `Oc1cc(Cl)ccc1Oc1ccc(Cl)cc1Cl` [Triclosan], for which the inhibition at 110 µM runs as follows: under setting [1], 45%; under setting [2], 60%.
Take `OC[C@H]1O[C@@H](Oc2ccc3c(c2)OC[C@H]2c4cc5c(cc4O[C@@H]32)OCO5)[C@H](O)[C@@H](O)[C@@H]1O` [Trifolirhizin]: the inhibition at 110 µM came out at 11% under setting [1] and 0% under setting [2].
In the case of `C[n+]1cccc(C(=O)[O-])c1` [Trigonelline], the inhibition at 110 µM amounted to 0% under setting [1] and 0% under setting [2].
As for `COc1cc(NCc2ccc3nc(N)nc(N)c3c2C)cc(OC)c1OC` [Trimetrexate], the inhibition at 110 µM is, setting by setting: under setting [1], 15%; under setting [2], 0%.
Take `Cc1cc2cc3c(C)cc(=O)oc3c(C)c2o1` [Trioxsalen]: the inhibition at 110 µM was found to be 6% under setting [1] and 7% under setting [2].
As to `CC(C)c1ccc2c(c1O)CC[C@H]1C3=C(CC[C@]21C)C(=O)OC3` [Triptophenolide], the inhibition at 110 µM was determined as 11% under setting [1] and 40% under setting [2].
The matching figures for `CN1[C@@H]2CC[C@H]1C[C@@H](O)C2` [Tropine]: 9% and 0%.
In the case of `O=C1c2ccccc2-n2c1nc1ccccc1c2=O` [Tryptanthrin], the inhibition at 110 µM runs as follows: under setting [3], 11%; under setting [4], 0%.
As for `Nc1ncnc2c1ccn2[C@@H]1O[C@H](CO)[C@@H](O)[C@H]1O` [Tubercidin], the inhibition at 110 µM runs as follows: under setting [1], 5%; under setting [2], 0%.
Regarding `CC[C@@H]1[C@H]2CCCCN3[C@H]2[C@H](C[C@H]3[C@@H]2C[C@H](C)C(=O)O2)[C@@H]2[C@H]1OC(=O)[C@H]2C` [Tuberostemonine], the inhibition at 110 µM worked out at 6% under setting [1] and 4% under setting [2].
As for `CC[C@H]1OC(=O)C[C@@H](O)[C@H](C)[C@@H](O[C@@H]2O[C@H](C)[C@@H](O[C@H]3C[C@@](C)(O)[C@@H](O)[C@H](C)O3)[C@H](N(C)C)[C@H]2O)[C@@H](CC=O)C[C@@H](C)C(=O)/C=C/C(C)=C/[C@@H]1CO[C@@H]1O[C@H](C)[C@@H](O)[C@@H](OC)[C@H]1OC` [Tylosin], the inhibition at 110 µM was 22% under setting [1] and 0% under setting [2].
For the compound `O=c1cc[nH]c(=O)[nH]1` [Uracil], the inhibition at 110 µM is 0% under setting [1] and 0% under setting [2].
For `O=c1ccn([C@@H]2O[C@H](CO)[C@@H](O)[C@H]2O)c(=O)[nH]1` [Uridine], the inhibition at 110 µM is, setting by setting: under setting [1], 0%; under setting [2], 10%.
As to `C[C@H]1[C@H](C)CC[C@]2(C(=O)O)CC[C@]3(C)C(=CC[C@@H]4[C@@]5(C)CC[C@H](O)C(C)(C)[C@@H]5CC[C@]43C)[C@H]12` [Ursolic acid], the inhibition at 110 µM under setting [1] came to 0% and the inhibition at 110 µM under setting [2] was found to be 0%.
Take `C[C@H]1[C@H](C)CC[C@]2(C(=O)O)CC[C@]3(C)C(=CC[C@@H]4[C@@]5(C)CCC(=O)C(C)(C)[C@@H]5CC[C@]43C)[C@H]12` [Ursonic acid]: the inhibition at 110 µM by setting is: under setting [3], 18%; under setting [4], 23%.
For the compound `C[C@H]1[C@H](C)CC[C@]2(CO)CC[C@]3(C)C(=CC[C@@H]4[C@@]5(C)CC[C@H](O)C(C)(C)[C@@H]5CC[C@]43C)[C@H]12` [Uvaol], the inhibition at 110 µM under setting [1] amounted to 19% and the inhibition at 110 µM under setting [2] amounted to 2%.
The matching figures for `CC(C)(C)C#Cc1cc(N(C(=O)[C@H]2CC[C@H](C)CC2)[C@H]2CC[C@H](O)CC2)c(C(=O)O)s1` [VX‐222]: 48% and 57%.
The corresponding values for `COc1cc(C=O)ccc1O` [Vanillin] are 24% and 11%.
The matching figures for `COC[C@H]1C[C@@H](c2nc(-c3ccc4c(c3)COc3cc5c(ccc6nc([C@@H]7CC[C@H](C)N7C(=O)[C@@H](NC(=O)OC)C(C)C)[nH]c65)cc3-4)c[nH]2)N(C(=O)[C@H](NC(=O)OC)c2ccccc2)C1` [Velpatasvir]: 19% and 1%.
Turning to `COc1cc(O)c2c(=O)cc(-c3ccc(O)c(OC)c3)oc2c1` [Velutin], the inhibition at 110 µM was found to be 11% under setting [1] and 19% under setting [2].
Take `Cc1c([C@H](C)[C@@H]2NC[C@@H](C)C[C@H]2O)ccc2c1C[C@H]1[C@H]2CC=C2C[C@@H](O)CC[C@@]21C` [Veratramine]: the inhibition at 110 µM reads like this: under setting [3], 9%; under setting [4], 2%.
In the case of `COc1ccc(C(=O)O[C@H]2CC[C@@]3(C)[C@@H]4CC[C@H]5[C@]6(O)C[C@H](O)[C@@]7(O)[C@@H](CN8C[C@@H](C)CC[C@H]8[C@@]7(C)O)[C@]6(O)C[C@@]53O[C@]24O)cc1OC` [Veratridine], the inhibition at 110 µM came to 4% under setting [1] and 0% under setting [2].
The matching figures for `CC1=CC(=O)[C@@H]2C[C@H]1C2(C)C` [Verbenone]: 4% and 4%.
In the case of `Nc1nc(N)c(O[C@@H]2O[C@H](CO)[C@@H](O)[C@H](O)[C@H]2O)c(=O)[nH]1` [Vicine], the inhibition at 110 µM is, setting by setting: under setting [1], 0%; under setting [2], 0%.
As to `CC[C@]12CCCN3CCc4c(n(c5ccccc45)C(=O)C1)[C@@H]32` [Vinburnine], under setting [1], the inhibition at 110 µM was 0%.
Still for that read-out and setting: to `CC[C@]12CCCN3CCc4c(n(c5ccccc45)[C@@](O)(C(=O)OC)C1)[C@@H]32` [Vincamine] belongs 0%.
For the compound `CCC12C=CCN3CC[C@@]4(c5ccc(OC)cc5N(C)[C@H]4[C@@](O)(C(=O)OC)[C@@H]1OC(C)=O)[C@@H]32` (stereo partly drawn) [Vindoline], the inhibition at 110 µM was found to be 14% under setting [1] and 0% under setting [2].
For `CCOC(=O)C1=C[C@]2(CC)CCCN3CCc4c(n1c1ccccc41)[C@@H]32` [Vinpocetine], the inhibition at 110 µM under setting [1] was determined as 0%.
With `CC1=C(C/C=C(\C)CCC[C@H](C)CCC[C@H](C)CCCC(C)C)C(=O)c2ccccc2C1=O` [Vitamin K1], the inhibition at 110 µM runs as follows: under setting [1], 6%; under setting [2], 13%.
In the case of `O=c1cc(-c2ccc(O)cc2)oc2c([C@@H]3O[C@H](CO)[C@@H](O)[C@H](O)[C@H]3O)c(O)cc(O)c12` [Vitexin], the inhibition at 110 µM under setting [1] came out at 39% and the inhibition at 110 µM under setting [2] was found to be 0%.
The corresponding values for `CC=C1CN(C)C2Cc3c([nH]c4ccccc34)C(c3cc4[nH]c5c(c4cc3OC)CCN3CC4CC(CC)C3C5(C(=O)OC)C4)CC1C2C(=O)OC` (stereo not drawn) [Voacamine] are 0% and 0%.

Values taken from PMC11855827, “High-Throughput Screening of Five Compound Libraries for Anthelmintic Activity and Toxicity Leads to the Discovery of Two Flavonoid Compounds” (International Journal of Molecular Sciences, 2025).
